Source: patent publication US12588678B2, “Oxazoline compound, synthesis method therefor and application thereof” (NANKAI UNIVERSITY, priority 2019, dated 2026)

Columns and labels:
[1] = system: Tetranychus cinnabarinus mite larvae; assay: Larvicidal activity test, dipping method on bean seedling leaves; assay type: in vivo; details: for mortality at 100 µg/mL: read-out: mortality of mite larvae (%), 100 mg/L; for mortality at 200 µg/mL: read-out: mortality of mite larvae (%), 200 mg/L; for mortality at 10 µg/mL: read-out: mortality of mite larvae (%), 10 mg/L; for mortality at 1 µg/mL: read-out: mortality of mite larvae (%), 1 mg/L
From the text: (§1) The assay examples are used to illustrate the acaricidal activity against Tetranychus cinnabarinus (mortality of mite larvae and mortality of mite eggs) of the compounds having the structure represented by formula (I), and the results are shown in tables 1 to 9, where mortality of mite larvae % =(number of dead mite larvae applied/total number of mite larvae applied)×100, and mortality of mite eggs %= (number of dead mite eggs applied/total number of mite eggs applied)×100.
Tetranychus cinnabarinus bred indoors on bean seedlings was used as a test subject by the dipping method. Move adult mites onto the newly grown complete bean seedling leaves with two leaves, cut off the bean seedlings, place the bean seedlings in a greenhouse with illumination at 25° C. for laying eggs for 24 hours, then remove adult mites and keep mite eggs. And continuously culture in the greenhouse for 5 days until mite eggs hatch into mite larvae (ensuring that the number of the mites on each tested leaf is not less than 60).
Completely immerse the bean seedling leaves containing the mite larvae into the sample solution to be detected with Tween at the prepared concentration for 5-6 seconds by using tweezers, slightly throw off residual liquid, put the bean seedling leaves back to the culture cup, continuously culture for 4 days and check the result. One of the plants was immersed in a solution containing no sample to be tested and the remaining additives were identical to the sample solution as a blank control. Each compound was replicated three times.

[2] = system: Tetranychus cinnabarinus mite eggs; assay: Activity against mite eggs, dipping method on bean seedling leaves; assay type: in vivo; details: for mortality at 1 µg/mL: read-out: mortality of mite eggs (%), 1 mg/L; for mortality at 10 µg/mL: read-out: mortality of mite eggs (%), 10 mg/L; for mortality at 100 µg/mL: read-out: mortality of mite eggs (%), 100 mg/L; for mortality at 200 µg/mL: read-out: mortality of mite eggs (%), 200 mg/L
From the text: as §1
Tetranychus cinnabarinus bred indoors on bean seedlings was used as a test subject by the dipping method. Move female adult mites onto the newly grown complete bean seedling leaves with two leaves, cut off the bean seedlings, place the bean seedlings in a greenhouse with illumination at 25° C. for laying eggs for 24 hours, then remove adult mites and keep mite eggs. After continuously culturing in the greenhouse for one day, completely soak the bean seedling leaves containing the acarid eggs into the prepared sample solution to be tested for 5-6 seconds by using tweezers, slightly throw off residual liquid, put the bean seedling leaves back to the culture cup, continuously culture for 4 days and then check the result. One of the plants was immersed in a solution containing no sample to be tested and the remaining additives were identical to the sample solution as a blank control. Each compound was replicated three times.

[3] = Tetranychus cinnabarinus, 96 h, checked after 4 days

Which results are given for `Fc1cccc(F)c1C1=NC(c2ccc(CN3CCCC3)cc2)CO1` (stereo not drawn) [Compound R1-1]?
mortality at 100 µg/mL [1, 3]: 50%; mortality at 200 µg/mL [1, 3]: 70%; mortality at 1 µg/mL [2, 3]: 30%; mortality at 10 µg/mL [2, 3]: 60%; mortality at 100 µg/mL [2, 3]: 70%; mortality at 200 µg/mL [2, 3]: 95%

Which mortality at 10 µg/mL [1, 3] does the source give for `Fc1cccc(F)c1C1=NC(c2ccc(CN3CCCCCC3)cc2)CO1` (stereo not drawn) [Compound R1-2] here?
Its mortality at 10 µg/mL is 35%.

And the mortality at 100 µg/mL [1, 3]?
The mortality at 100 µg/mL was 75%.

And the mortality at 200 µg/mL [1, 3]?
The mortality at 200 µg/mL was 90%.

And the mortality at 10 µg/mL [2, 3]?
Its mortality at 10 µg/mL is 55%.

What about the mortality at 100 µg/mL [2, 3] of the same molecule?
Its mortality at 100 µg/mL is 80%.

And the mortality at 200 µg/mL [2, 3]?
Its mortality at 200 µg/mL is 95%.

Which results are given for `Fc1cccc(F)c1C1=NC(c2ccc(CN3CCCCCCC3)cc2)CO1` (stereo not drawn) [Compound R1-3]?
mortality at 1 µg/mL [1, 3]: 55%; mortality at 10 µg/mL [1, 3]: 70%; mortality at 100 µg/mL [1, 3]: 95%; mortality at 200 µg/mL [1, 3]: 100%; mortality at 1 µg/mL [2, 3]: 55%; mortality at 10 µg/mL [2, 3]: 70%; mortality at 100 µg/mL [2, 3]: 90%; mortality at 200 µg/mL [2, 3]: 100%

With `Fc1cccc(F)c1C1=NC(c2ccc(CN3CCOCC3)cc2)CO1` (stereo not drawn) [Compound R1-4] as the molecule, how does the mortality at 10 µg/mL [1, 3] read?
The mortality at 10 µg/mL was 30%.

And the mortality at 100 µg/mL [1, 3]?
The mortality at 100 µg/mL was 70%.

And the mortality at 200 µg/mL [1, 3]?
The mortality at 200 µg/mL was 90%.

What about the mortality at 10 µg/mL [2, 3] of the same molecule?
Its mortality at 10 µg/mL is 50%.

And the mortality at 100 µg/mL [2, 3]?
The mortality at 100 µg/mL was 70%.

What about the mortality at 200 µg/mL [2, 3] of the same molecule?
Its mortality at 200 µg/mL is 90%.

How did the mortality at 10 µg/mL [1, 3] turn out when `Fc1cccc(F)c1C1=NC(c2ccc(Cn3cccc3)cc2)CO1` (stereo not drawn) [Compound R1-5] was run?
Its mortality at 10 µg/mL is 40%.

And the mortality at 100 µg/mL [1, 3]?
Its mortality at 100 µg/mL is 90%.

What about the mortality at 200 µg/mL [1, 3] of the same molecule?
The mortality at 200 µg/mL was 100%.

What about the mortality at 10 µg/mL [2, 3] of the same molecule?
Its mortality at 10 µg/mL is 45%.

And the mortality at 100 µg/mL [2, 3]?
The mortality at 100 µg/mL was 100%.

What about the mortality at 200 µg/mL [2, 3] of the same molecule?
The mortality at 200 µg/mL was 100%.

With `Fc1cccc(F)c1C1=NC(c2ccc(CN3CC=CC3)cc2)CO1` (stereo not drawn) [Compound R1-6] as the molecule, how does the mortality at 1 µg/mL [1, 3] read?
The mortality at 1 µg/mL was 50%.

And the mortality at 10 µg/mL [1, 3]?
Its mortality at 10 µg/mL is 70%.

What about the mortality at 100 µg/mL [1, 3] of the same molecule?
The mortality at 100 µg/mL was 100%.

And the mortality at 200 µg/mL [1, 3]?
The mortality at 200 µg/mL was 100%.

And the mortality at 1 µg/mL [2, 3]?
Its mortality at 1 µg/mL is 50%.

And the mortality at 10 µg/mL [2, 3]?
Its mortality at 10 µg/mL is 70%.

And the mortality at 100 µg/mL [2, 3]?
Its mortality at 100 µg/mL is 100%.

And the mortality at 200 µg/mL [2, 3]?
Its mortality at 200 µg/mL is 100%.

Which mortality at 1 µg/mL [1, 3] does the source give for `CC(=O)N1CCN(Cc2ccc(C3COC(c4c(F)cccc4F)=N3)cc2)C1=O` (stereo not drawn) [Compound R1-8] here?
The mortality at 1 µg/mL was 35%.

What about the mortality at 10 µg/mL [1, 3] of the same molecule?
Its mortality at 10 µg/mL is 65%.

And the mortality at 100 µg/mL [1, 3]?
The mortality at 100 µg/mL was 95%.

What about the mortality at 200 µg/mL [1, 3] of the same molecule?
The mortality at 200 µg/mL was 100%.

And the mortality at 10 µg/mL [2, 3]?
The mortality at 10 µg/mL was 40%.

And the mortality at 100 µg/mL [2, 3]?
Its mortality at 100 µg/mL is 95%.

And the mortality at 200 µg/mL [2, 3]?
Its mortality at 200 µg/mL is 100%.

`O=C1CCC(=O)N1Cc1ccc(C2COC(c3c(F)cccc3F)=N2)cc1` (stereo not drawn) [Compound R1-9] was tested. Which mortality at 10 µg/mL [1, 3] did it give?
The mortality at 10 µg/mL was 35%.

What about the mortality at 100 µg/mL [1, 3] of the same molecule?
Its mortality at 100 µg/mL is 80%.

What about the mortality at 200 µg/mL [1, 3] of the same molecule?
Its mortality at 200 µg/mL is 85%.

What about the mortality at 10 µg/mL [2, 3] of the same molecule?
Its mortality at 10 µg/mL is 50%.

And the mortality at 100 µg/mL [2, 3]?
Its mortality at 100 µg/mL is 70%.

And the mortality at 200 µg/mL [2, 3]?
Its mortality at 200 µg/mL is 95%.

Which results are given for `O=C1c2ccccc2C(=O)N1Cc1ccc(C2COC(c3c(F)cccc3F)=N2)cc1` (stereo not drawn) [Compound R1-10]?
acaricidal activity compared with etoxazole ([1]; Tetranychus cinnabarinus eggs and larvae, etoxazole as reference): higher acaricidal activity than etoxazole; mortality at 0.01 µg/mL ([1]; Tetranychus cinnabarinus, 96 h, read-out: mortality of mite larvae (%), 0.01 mg/L, checked after 4 days): 40%; mortality at 0.05 µg/mL ([1]; Tetranychus cinnabarinus, 96 h, read-out: mortality of mite larvae (%), 0.05 mg/L, checked after 4 days): 55%; mortality at 0.1 µg/mL ([1]; Tetranychus cinnabarinus, 96 h, read-out: mortality of mite larvae (%), 0.1 mg/L, checked after 4 days): 70%; mortality at 1 µg/mL [1, 3]: 80%; mortality at 10 µg/mL [1, 3]: 95%; mortality at 100 µg/mL [1, 3]: 100%; mortality at 200 µg/mL [1, 3]: 100%; mortality at 0.01 µg/mL ([2]; Tetranychus cinnabarinus, 96 h, read-out: mortality of mite eggs (%), 0.01 mg/L, checked after 4 days): 40%; mortality at 0.05 µg/mL ([2]; Tetranychus cinnabarinus, 96 h, read-out: mortality of mite eggs (%), 0.05 mg/L, checked after 4 days): 65%; mortality at 0.1 µg/mL ([2]; Tetranychus cinnabarinus, 96 h, read-out: mortality of mite eggs (%), 0.1 mg/L, checked after 4 days): 75%; mortality at 1 µg/mL [2, 3]: 85%; mortality at 10 µg/mL [2, 3]: 90%; mortality at 100 µg/mL [2, 3]: 100%; mortality at 200 µg/mL [2, 3]: 100%; activity on mite eggs, times that of etoxazole ([2]; relative to etoxazole): 10 times
